Assay results from paper PMC6155403, “Camellia sinensis L. Extract and Its Potential Beneficial Effects in Antioxidant, Anti-Inflammatory, Anti-Hepatotoxic, and Anti-Tyrosinase Activities” (Molecules : A Journal of Synthetic Chemistry and Natural …, 2017).

What was measured:
[1] = DPPH free radical scavenging assay; details: 30 min, room temperature (30 °C), 515 nm
Procedure: The DPPH method [36] was used to determine the free radical-scavenging potential of each sample. The test sample (0.1 mL) was added to 3.9 mL of DPPH solution (6 × 10^−5 M). The absorbance was measured at 515 nm after 30 min of the reaction at room temperature (30 °C). The antiradical activity was calculated as a percentage of DPPH decolouration versus a control. The results were expressed as the concentration of the FTE that scavenged 50% of the free radicals from the reaction mixture (SC50). The percent DPPH scavenging effect was calculated by using following equation [37]: (1) DPPHscavengingeffect(%)orPercentinhibition=[Ao - At/Ao]×100 where Ao is the absorbance of the control reaction and At is the absorbance in the presence of a test or standard sample. AsA, BHA, BHT, and tocopherol were used as positive references.

[2] = biological target: mushroom tyrosinase; assay: Mushroom tyrosinase inhibition in vitro (dopachrome method, L-DOPA oxidation); assay type: biochemical; details: mean ± SEM; L-DOPA substrate, pH 6.8, 25 °C
Procedure: Briefly, 120 µL of 20 mM phosphate buffer (pH 6.8), 40 µL of 48 units/mL mushroom tyrosinase, and 20 µL of various sample concentrations with or without enzyme were placed in the wells of a 96-well microplate. After pre-incubation at 25 °C for 10 min, 20 µL of 0.85 mM L-DOPA was added, and the plate was subsequently incubated at 25 °C for 20 min. The amount of dopachrome was measured at 492 nm in an ELISA plate reader (Anthos 2010, Anthos Labtec Instruments GmbH, Wals, Austria). The extent of inhibition by the test samples was expressed as the percentage of concentration necessary to achieve 50% inhibition (IC50).

[3] = Chelation of ferrous metal ions (ferrozine-Fe2+ complex formation); details: mean ± SD; 10 min, 30 °C, 562 nm
Procedure: The method of Gülçin et al. was followed. The reaction mixture, containing different concentrations of each sample, FeCl2 (2 mM), and ferrozine (1.5 mM), was adjusted to a total volume of 4 mL with absolute methanol, shaken well, and incubated for 10 min at room temperature (30 °C). The absorbance of the mixture was measured at 562 nm against a blank. EDTA was used as the positive reference. The percent inhibition of ferrozine-Fe^2+ complex formation was calculated against a control. The results were expressed as the concentration of the FTE that chelated 50% of metal ions (IC50).

SMILES | Anti-tyrosinase IC50 [2] | SC50 (50% inhibition of the DPPH scavenging effect) [1] | also measured
Cc1c(C)c2c(c(C)c1O)CCC(C)(CCCC(C)CCCC(C)CCCC(C)C)O2 (racemic) [Tocopherol, DL-α-tocopherol] | – | 0.196 ± 0.005 moles of tested compound/mole DPPH | –
O=C1O[C@H]([C@@H](O)CO)C(O)=C1O [AsA, ascorbic acid] | – | 0.209 ± 0.006 moles of tested compound/mole DPPH | –
COc1ccc(O)c(C(C)(C)C)c1 [BHA, butylated hydroxyanisole] | – | 0.184 ± 0.011 moles of tested compound/mole DPPH | –
Cc1cc(C(C)(C)C)c(O)c(C(C)(C)C)c1 [BHT, butylated hydroxytoluene] | – | 0.224 ± 0.005 moles of tested compound/mole DPPH | –
O=C(O)CN(CCN(CC(=O)O)CC(=O)O)CC(=O)O [EDTA, ethylenediaminetetraacetic acid] | – | – | Iron(II)-chelating IC50 [3]: 10 ± 0 µg/mL

Further lines, with some results ahead:

Anti-tyrosinase IC50 [2] | SMILES | SC50 (50% inhibition of the DPPH scavenging effect) [1] | also measured
76.50 ± 1.50 µg/mL | O=C(O[C@@H]1Cc2c(O)cc(O)cc2O[C@@H]1c1ccc(O)c(O)c1)c1cc(O)c(O)c(O)c1 [ECG, (−)-epicatechin-3-gallate] | – | –
110.00 ± 0.00 µg/mL | Oc1cc(O)c2c(c1)O[C@H](c1cc(O)c(O)c(O)c1)[C@H](O)C2 [EGC, (−)-epigallocatechin] | – | –
234.00 ± 6.00 µg/mL | O=C(O[C@@H]1Cc2c(O)cc(O)cc2O[C@@H]1c1cc(O)c(O)c(O)c1)c1cc(O)c(O)c(O)c1 [EGCG, (−)-epigallocatechin-3-gallate] | – | –
